Results published in patent US10925839B2, “Composition for treating joint disease and kit containing same” (SEIKAGAKU CORPORATION, priority 2017, dated 2021).

System: human knee osteoarthritis patients
Experiment: Randomized placebo-controlled double-blind trial, WOMAC A (pain) evaluation by VAS
Assay type: in vivo
Conditions: 12 weeks after initial administration; for WOMAC-A Change (average change from baseline): MMRM estimate
Procedure: The effectiveness of the investigational drug (test drug (composition for treating joint disease of invention) or placebo) when administered 3 times at four-week intervals in the knee joint cavities of human knee osteoarthritis patients was investigated by a multi-center collaborative, randomized, placebo-controlled, double-blind, parallel-group comparison trial. The test drug and placebo were as follows:
Test drug: 3 mL of aqueous solution for injection containing 30 mg of test substance (3.6 mg as diclofenac);
The total amount (3 mL) of the test drug or placebo was administered (injected) into the knee joint cavities of the affected knees of the target patients on week 0, week 4 and week 8 for a total of three injections.
Effectiveness was evaluated by the following evaluation methods at the time of the initial administration and at evaluation points 1, 2, 4, 6, 8, 10 and 12 weeks after the initial administration.
Effectiveness was evaluated using the WOMAC® evaluation (The Journal of Rheumatology 1988; 15:12, p. 1833-1840) developed by Dr. Nicholas Bellamy. The WOMAC(r) evaluation has been established as a method for evaluating osteoarthritis (The Journal of Rheumatology 2000; 27:11, p. 2635-2641).
The patient response method used the VAS (Visual Analog Scale). With the VAS, the degree of a patient's own feelings in response to each question is indicated by the patient on a 100 mm line, and the degree is evaluated according to the position on the line. Position is represented as length from the left end of the scale. For example, a patient is asked the same question about pain in evaluations before and after administration, and the patient responds by indicating a position (degree) on the scale. Numerical values for improvement are then obtained based on the difference between the length indicated by the patient before administration (baseline) and the length indicated by the patient during each evaluation after administration.
The improvement effects were quantified based on the difference between the length indicated by the patient before administration (baseline) and the length indicated by the patient at the time of each evaluation after administration. The analysis results for questions about pain (WOMAC® A: evaluates intensity of pain during walking, etc.) are shown in Table 1 below. In the table, the lower the value of the change difference below 0, the greater the improvement effect.

Sodium hyaluronate with introduced aminoethanol-diclofenac [Test Drug]
WOMAC-A Change difference (test drug group minus placebo group) (patients with 25 ≤ BMI and 26 ≤ DP (weeks)): −13.7 | WOMAC-A Change (average change from baseline) (patients with 25 ≤ BMI and 26 ≤ DP (weeks), VAS 100 mm line): −30.7 | WOMAC-A Change difference (test drug group minus placebo group) (patients with 25 ≤ BMI and 26 ≤ DP (weeks), listed as test drug): extremely great improvement effect | WOMAC-A Change difference (test drug group minus placebo group) (patients with BMI 25≤ kg/m^2): −13.4 | WOMAC-A Change (average change from baseline) (patients with BMI 25≤ kg/m^2, VAS 100 mm line): −32.6 | WOMAC-A Change difference (test drug group minus placebo group) (patients with BMI <25 and/or DP <26 weeks): −3.2 | WOMAC-A Change (average change from baseline) (patients with BMI <25 and/or DP <26 weeks, VAS 100 mm line): −27.2 | WOMAC-A Change difference (test drug group minus placebo group) (patients with BMI <25 kg/m^2): −2.1 | WOMAC-A Change (average change from baseline) (patients with BMI <25 kg/m^2, VAS 100 mm line): −25.2 | WOMAC-A Change (average change from baseline) (whole group, 30 mg test substance intra-articular at weeks 0, 4, 8, VAS 100 mm line): −28.7 | WOMAC-A Change difference (test drug group minus placebo group) (whole group, VAS 100 mm line): −7.0
